In data set [1] the test system is Ba/F3 cells expressing DDR2 mutants. As to the kind of experiment: Four-day proliferation of IL-3-independent Ba/F3 cells. The note with it: for Killing / proliferation of Ba/F3 cells expressing DDR2 mutants: single agent. The format is cell-based. Here is the method: (§1) Cell Culture. A549, NCI-H2286, HCC-366 and NCI-H1703 cells were obtained from the core collection at the Dana Farber Cancer Institute, having previously been purchased from the ATCC and used to establish a collection of early passage lung cancer cell lines which were analyzed by fingerprinting and SNP arrays (32). All cells used for the experiments described in this manuscript were obtained from freezes made at that time. Lung cancer cell lines were grown in RPMI (Invitrogen) with 10% fetal calf serum, NIH-3T3 cells were grown in DMEM (Mediatech) with 10% serum and Ba/F3 cells in RPMI supplemented with 10% serum and IL-3 (BD Biosciences) at 10 ng/ml. For IL-3 withdrawal experiments Ba/F3 cells were collected via centrifugation, washed once in sterile PBS and then resuspended in media without IL-3. Colony formation assays in NIH-3T3 cells were performed in six-well plates in which 25,000 NIH-3T3 cells were plated in triplicate in 1 ml of 0.33% top agar on top of 2 ml of 0.5% bottom agar. After three weeks colonies were counted using the NIH ImageJ software.
(§2) Cell Proliferation and Viability Assays. […] Proliferation was measured four days later.

Data set [2] has as its system Src and STAT5 phosphorylation in DDR2 L63V-expressing Ba/F3 cells. As to the kind of experiment: Immunoblots of phospho-Src and phospho-STAT5. It is filed as cell-based. The note with it: single agent or with nilotinib, AP24534 or dasatinib; two days. The method, then: Immunoblots: Immunoblots were performed using the Nupage system (Invitrogen) per the manufacturer's protocol. Cells were lysed in 1% NP-40 with protease (Roche) and phosphatase inhibitors (Calbiochem) and protein concentration assayed with the Bradford reagent (Bio-Rad). Primary antibodies used were Flag-M2 (Sigma), phospho-Y417-Src (Cell Signaling Technologies), phospho-Y694-STAT5 (Cell Signaling) and Actin (Santa Cruz). A DDR2 antibody was generated for this project by Bethyl Labs. Secondary HRP-conjugated antibodies were all obtained from Pierce and proteins detected by pico-ECL (Thermo Scientific). Images were imported into Adobe Illustrator using an Epson 4490 scanner. […] In all cases adjustment of brightness or contrast the adjustment was applied uniformly to the image as a whole.
On the technique in general: A western blot detects proteins with antibodies after separation by electrophoresis.

For data set [3], the system named is SCC lines harboring DDR2 mutations (NCI-H2286, HCC-366). As to the kind of experiment: Cell proliferation of DDR2-mutant SCC lines (Cell-Titer-Glo). The format is cell-based.
In data set [4] the test system is HCC-366 cells (DDR2 L239R). From the text: (§3) Cell Proliferation and Viability Assays. […] Kinase inhibitors were purchased from LC Labs or were synthesized by Nathanael Gray's laboratory at Harvard Medical School.
The test system of data set [5] is NCI-H2286 cells (DDR2 I638F).
Description: as §3

The test system of data set [6] is DDR2 mutant cell lines. The data set is described as follows: Cell viability by trypan blue exclusion. It is filed as cell-based. The method, then:
as §2

Data set [7] concerns DDR2 mutant cell lines. The data set is described as follows: Annexin V analysis 48 hours after addition of drug. It is filed as cell-based. The note with it: 48 hours after drug.
For data set [8], the system named is NIH-3T3 cells expressing L63V DDR2. As to the kind of experiment: Soft agar colony formation. The note with it: L63V DDR2, single application at plating. The format is cell-based. The method, then:
as §1

The subject of data set [9] is NCI-H1703 SCC cell line (PDGFRA amplification). Particulars: NCI-H1703, positive control line.
Description: Cell Proliferation and Viability Assays. Cell proliferation was measured with the Cell-Titer-Glo reagent (Promega) per the manufacturer's instructions. For experiments with the SCC cell lines cells were plated in clear-bottomed 96 well plates at a density of 1500 cells per well. The following day the drug was added and cell proliferation was measured six days later for the SCC cell lines. For Ba/F3 cells were plated at 5000 cells per well and the drug added the same day. Proliferation was measured four days later. Proliferation measurements were made using a standard 96 well plate luminometer/plate reader. Data are shown as relative values in which the luminescence at a given drug concentration is compared to untreated cells of the same cell type.
Statistics: For proliferation and colony formation assays mean values from a minimum of triplicate samples are reported as well as standard errors as calculated by Microsoft Excel. IC50 values were obtained using Graph Pad Prism software.
In data set [10] the test system is HCC-366 cells (DDR2 L239R). Particulars: previous report; cited from earlier work.
For data set [11] the following is noted: human, in vivo; cited from earlier work.
Data set [12] concerns NCI-H2286 xenografts. As to the kind of experiment: Xenograft tumor size in nude mice. The note with it: 50 mg/kg oral gavage, two weeks.
Data set [13] deals with NCI-H1703 xenografts. The data set is described as follows: Xenograft tumor size in nude mice. The note with it: 50 mg/kg oral gavage, two weeks.

“Also recorded” adds a separate entry of the source.

As for `CN1CCN(CCOc2cc(OC3CCOCC3)c3c(Nc4c(Cl)ccc5c4OCO5)ncnc3c2)CC1` [AZD0530], the “Proliferation on addition of AZD0530” value in data set [1] (Ba/F3 DDR2 L63V grown in 50 nM nilotinib) is reported as “marked reduction in proliferation”. Besides, the “Killing / proliferation of Ba/F3 cells expressing DDR2 mutants” value in [1] (without IL-3, four days) is on record as “modest effect on the proliferation; also recorded: minimal toxicity”. Moreover, the “Src and STAT5 phosphorylation” value in data set [2] is “reduced Src and STAT5 phosphorylation in a dose-dependent fashion”.
With `Cc1cn(-c2cc(NC(=O)c3ccc(C)c(Nc4nccc(-c5cccnc5)n4)c3)cc(C(F)(F)F)c2)cn1` [Nilotinib], in data set [3], the “Proliferation of SCC lines harboring DDR2 mutations” value is listed as “inhibited the proliferation”. In addition, the “Effect on proliferation at 50 nM” value in [1] (50 nM, wild-type Ba/F3 or Ba/F3 expressing DDR2 mutations) is “little effect on proliferation”. For the same compound, the “Killing / proliferation of Ba/F3 cells expressing DDR2 mutants” value in [1] (without IL-3, four days) is recorded as “modest activity; also recorded: minimal toxicity”.
“N-(2 ? chloro-6-methylphenyl)-2-[[6-[4-(2-hydroxyethyl)-1-piperazinyl]-2-methyl-4 ? pyrimidinyl]amino]-5-thiazolecarboxamide, monohydrate [Dasatinib]”: the “Increase of IC50 with ectopic DDR2 T654M gatekeeper mutation” value in data set [4] (HCC-366 expressing T654M in cis with L239R) was found to be 209 fold; in data set [5] (NCI-H2286 expressing T654M in cis with I638F), 35 fold. Besides, the IC50 in data set [4] (read-out: IC50, inhibition of proliferation, HCC-366, six days) was 140 nM; in data set [5] (read-out: IC50, inhibition of proliferation, NCI-H2286, six days) it was 139 nM; in [1] (mean over Ba/F3 lines expressing DDR2 mutants, without IL-3, four days, read-out: Mean calculated IC50), 680 nM. For the same compound, the “Cell death vs cell cycle arrest by trypan blue exclusion” value in [6] is given as “cell death as opposed to cell cycle arrest”. For the same compound, the “Cellular annexin V staining” value in [7] was “increase in cellular annexin V staining”. Also, in data set [8], the “Colony formation in soft agar” value is on record as “inhibited”. In [9], the Sensitivity of proliferation result is recorded as “sensitive”. The “Sensitivity rank among 83 NSCLC cell lines” value in data set [10] was “most sensitive squamous cell lung cancer line”. Moreover, the Toxicity in patients entry in data set [11] is “myelosuppression and the development of pleural and pericardial effusions”. The Tumor size entry in [12] and in data set [13] was “decrease in tumor size” throughout.

Values taken from patent publication US10385403B2, “DDR2 mutations in squamous cell lung cancer” (The Broad Institute, Inc., priority 2012, dated 2019).
